Results: PubChem BioAssay AID1259407 (Chemical Carcinogenesis Research Information System (CCRIS), 2018)
The source made the active and inactive calls. No rule for the calls is given here.

Test system: CCRIS mutagenicity, Ames/micronucleus/aberration tests
Assay: CCRIS mutagenicity studies
[1] = Test System: AMES SALMONELLA TYPHIMURIUM, Strain/Indicator: TA98, Metabolic Activation: NONE, Method: STANDARD PLATE
[2] = Test System: AMES SALMONELLA TYPHIMURIUM, Strain/Indicator: TA98, Metabolic Activation: RAT, LIVER, S-9, AROCLOR 1254, Method: STANDARD PLATE
[3] = Test System: AMES SALMONELLA TYPHIMURIUM, Strain/Indicator: TA100, Metabolic Activation: NONE, Method: STANDARD PLATE
[4] = Test System: AMES SALMONELLA TYPHIMURIUM, Strain/Indicator: TA100, Metabolic Activation: RAT, LIVER, S-9, AROCLOR 1254, Method: STANDARD PLATE
[5] = Test System: AMES SALMONELLA TYPHIMURIUM, Strain/Indicator: TA100, Metabolic Activation: S-9, Method: STANDARD PLATE
[6] = Test System: AMES SALMONELLA TYPHIMURIUM, Strain/Indicator: TA98, Metabolic Activation: NONE, Method: PREINCUBATION
[7] = Test System: AMES SALMONELLA TYPHIMURIUM, Strain/Indicator: TA100, Metabolic Activation: NONE, Method: PREINCUBATION

## Nc1ccc(F)cc1
End Point: IN VITRO MICRONUCLEUS, Test System: CHL/IU CELLS, Metabolic Activation: RAT, LIVER, S-9, PHENOBARBITAL AND 5,6-BENZOFLAVONE
  mutagenic call: active; positive
Test System: AMES SALMONELLA TYPHIMURIUM, Strain/Indicator: TA98, Metabolic Activation: HAMSTER, LIVER, S-9, AROCLOR 1254, Method: STANDARD PLATE
  mutagenic call: active; positive
[1]
  mutagenic call: inactive; negative
[2]
  mutagenic call: active; positive
Test System: AMES SALMONELLA TYPHIMURIUM, Strain/Indicator: TA100, Metabolic Activation: HAMSTER, LIVER, S-9, AROCLOR 1254, Method: STANDARD PLATE
  mutagenic call: active; positive
[3]
  mutagenic call: inactive; negative
[4]
  mutagenic call: active; positive
Test System: E. COLI, Strain/Indicator: WP2 UVRA, Metabolic Activation: NONE, Method: FLUCTUATION TEST
  mutagenic call: inactive; negative
Test System: MOUSE LYMPHOMA, Strain/Indicator: L5178Y (TK+/TK-), Metabolic Activation: NONE, Method: SUSPENSION/PLATE
  mutagenic call: active; positive. reevaluation of results: equivocal
Test System: Mouse lymphoma, Strain/Indicator: L5178Y (tk+/tk-), Metabolic Activation: Rat, Liver, S-9, Aroclor 1254, Method: Suspension/plate
  mutagenic call: inconclusive (previous evaluation equivocal)

## CCCC(=O)Nc1snc2ccc(Cl)cc12
[3]
  mutagenic call: inactive; negative
[5]
  mutagenic call: inactive; negative
Test System: AMES SALMONELLA TYPHIMURIUM, Strain/Indicator: TA1537, Metabolic Activation: NONE, Method: STANDARD PLATE
  mutagenic call: inactive; negative
Test System: AMES SALMONELLA TYPHIMURIUM, Strain/Indicator: TA1537, Metabolic Activation: S-9, Method: STANDARD PLATE
  mutagenic call: inactive; negative

## Cc1cccc(O)c1C
[6]
  mutagenic call: inactive; negative
Test System: AMES SALMONELLA TYPHIMURIUM, Strain/Indicator: TA98, Metabolic Activation: RAT LIVER S-9, PHENOBARBITAL AND BETA-NAPHTHOFLAVONE, Method: PREINCUBATION
  mutagenic call: inactive; negative
[7]
  mutagenic call: inactive; negative
Test System: AMES SALMONELLA TYPHIMURIUM, Strain/Indicator: TA100, Metabolic Activation: RAT LIVER S-9, PHENOBARBITAL AND BETA-NAPHTHOFLAVONE, Method: PREINCUBATION
  mutagenic call: inactive; negative
Test System: AMES SALMONELLA TYPHIMURIUM, Strain/Indicator: TA1535, Metabolic Activation: NONE, Method: PREINCUBATION
  mutagenic call: inactive; negative
Test System: AMES SALMONELLA TYPHIMURIUM, Strain/Indicator: TA1535, Metabolic Activation: RAT LIVER S-9, PHENOBARBITAL AND BETA-NAPHTHOFLAVONE, Method: PREINCUBATION
  mutagenic call: inactive; negative
Test System: AMES SALMONELLA TYPHIMURIUM, Strain/Indicator: TA1537, Metabolic Activation: NONE, Method: PREINCUBATION
  mutagenic call: inactive; negative
Test System: AMES SALMONELLA TYPHIMURIUM, Strain/Indicator: TA1537, Metabolic Activation: RAT LIVER S-9, PHENOBARBITAL AND BETA-NAPHTHOFLAVONE, Method: PREINCUBATION
  mutagenic call: inactive; negative
Test System: AMES SALMONELLA TYPHIMURIUM, Strain/Indicator: TA1538, Metabolic Activation: NONE, Method: PREINCUBATION
  mutagenic call: inactive; negative
Test System: AMES SALMONELLA TYPHIMURIUM, Strain/Indicator: TA1538, Metabolic Activation: RAT LIVER S-9, PHENOBARBITAL AND BETA-NAPHTHOFLAVONE, Method: PREINCUBATION
  mutagenic call: inactive; negative
Test System: E.COLI, Strain/Indicator: WP2UVRA, Metabolic Activation: NONE, Method: PREINCUBATION
  mutagenic call: inactive; negative
Test System: E.COLI, Strain/Indicator: WP2UVRA, Metabolic Activation: RAT LIVER S-9, PHENOBARBITAL AND BETA-NAPHTHOFLAVONE, Method: PREINCUBATION
  mutagenic call: inactive; negative

## C=C1C[C@@]23CC[C@H]4[C@@](C)(CCC[C@@]4(C)C(=O)O[C@@H]4O[C@H](CO)[C@@H](O)[C@H](O)[C@H]4O)[C@@H]2CC[C@]1(O[C@@H]1O[C@H](CO)[C@@H](O)[C@H](O)[C@H]1O[C@@H]1O[C@@H](C)[C@H](O)[C@@H](O)[C@H]1O)C3
Test System: AMES SALMONELLA TYPHIMURIUM, Strain/Indicator: TM677, Metabolic Activation: RAT, LIVER, S-9, AROCLOR 1254, Method: PREINCUBATION
  mutagenic call: inactive; negative

## O=Nc1ccc2c(c1)Cc1ccccc1-2
[1]
  mutagenic call: active; positive
[2]
  mutagenic call: active; positive
Test System: AMES SALMONELLA TYPHIMURIUM, Strain/Indicator: TA98, Metabolic Activation: S-9, Method: STANDARD PLATE
  mutagenic call: active; positive
[3]
  mutagenic call: active; positive
[5]
  mutagenic call: active; positive
Test System: AMES SALMONELLA TYPHIMURIUM, Strain/Indicator: TA1538, Metabolic Activation: NONE, Method: STANDARD PLATE
  mutagenic call: active; positive

## CSSC
[6]
  mutagenic call: inactive; negative
Test System: AMES SALMONELLA TYPHIMURIUM, Strain/Indicator: TA98, Metabolic Activation: RAT, LIVER, S-9, AROCLOR 1254, Method: PREINCUBATION
  mutagenic call: inactive; negative
[7]
  mutagenic call: inactive; negative
Test System: AMES SALMONELLA TYPHIMURIUM, Strain/Indicator: TA100, Metabolic Activation: RAT, LIVER, S-9, AROCLOR 1254, Method: PREINCUBATION
  mutagenic call: inactive; negative
Test System: AMES SALMONELLA TYPHIMURIUM, Strain/Indicator: TA102, Metabolic Activation: NONE, Method: PREINCUBATION
  mutagenic call: inactive; negative
Test System: AMES SALMONELLA TYPHIMURIUM, Strain/Indicator: TA102, Metabolic Activation: RAT, LIVER, S-9, AROCLOR 1254, Method: PREINCUBATION
  mutagenic call: inactive; negative

## CC(C)c1cc(-c2ccccc2)ccc1N
[1]
  mutagenic call: inactive; negative
Test System: AMES SALMONELLA TYPHIMURIUM, Strain/Indicator: TA98, Metabolic Activation: RAT LIVER S-9, AROCLOR, Method: STANDARD PLATE
  mutagenic call: active; positive
[3]
  mutagenic call: inactive; negative
Test System: AMES SALMONELLA TYPHIMURIUM, Strain/Indicator: TA100, Metabolic Activation: RAT LIVER S-9, AROCLOR, Method: STANDARD PLATE
  mutagenic call: active; positive

## C[C@H](N)C(=O)c1ccccc1
End Point: In vivo chromosomal aberrations, Test System: Blood from cardiac puncture, Species: Rat, Strain/Sex: Sprague-Dawley/Male, Route: Oral
  mutagenic call: active; positive (high dose significantly different from control and low dose)

## O=C(Cn1ccnc1[N+](=O)[O-])NCc1ccccc1
[3]
  mutagenic call: active; positive
[4]
  mutagenic call: active; positive

## C=CCSS(=O)CC=C (stereo not drawn)
End Point: IN VITRO CHROMOSOMAL ABERRATIONS, Test System: HUMAN PERIPHERAL BLOOD LYMPHOCYTES, Metabolic Activation: NONE
  mutagenic call: inactive; negative
End Point: IN VITRO CHROMOSOMAL ABERRATIONS, Test System: HUMAN PERIPHERAL BLOOD LYMPHOCYTES, Metabolic Activation: RAT, LIVER, S-9, PHENOBARBITONE
  mutagenic call: inactive; negative
